Experimental data: patent US20260083865A1, “PROSTATE SPECIFIC MEMBRANE ANTIGEN (PSMA) LIGANDS AND USE THEREOF” (priority 2022, published 2026)
Read-outs that look alike come from different tables or passages of the source. Numbered stars: 1 amine (or outer) side, 2 acyl side, 3 side chain; on linkers, the order of the positions; unused ones are H or OH. Bridge positions count the residues as written; N and C are the ends. Square brackets hold non-standard residues; d marks the D form. Side chains are listed from the residue outwards. Peptide text beside a SMILES is read from it. * marks the point of attachment. TtdsdLys(DOTA)NH2 = NC(=O)[C@@H](CCCCNC(=O)CN1CCN(CC(=O)O)CCN(CC(=O)O)CCN(CC(=O)O)CC1)NC(=O)CCC(=O)NCCCOCCOCCOCCCN*; X2 = O=C(O)CN1CCN(CC(=O)O)CCN([C@H](CCC(=O)*)C(=O)O)CCN(CC(=O)O)CC1; DOTA = O=C(O)CN1CCN(CC(=O)O)CCN(CC(=O)*)CCN(CC(=O)O)CC1; Phe(3-Cl) = N[C@@H](Cc1cccc(Cl)c1)C(=O)O; Phe(4-Cl) = N[C@@H](Cc1ccc(Cl)cc1)C(=O)O; Ethylenediamine = C(CN[*:2])N[*:1]; NMeT = CN[C@H](C(=O)O)[C@@H](C)O; X1 = O=C(CC1CCN([*:1])CC1)[*:2]; Cit = NC(=O)NCCC[C@H](N)C(=O)O; Tle = CC(C)(C)[C@H](N)C(=O)O; Hexanoyl = CCCCCC(=O)*; AEEA = NCCOCCOCC(=O)O; Aib = CC(C)(N)C(=O)O; CO = O=C([*:1])[*:2]; NHBu = CCCCN*

How the values were obtained:
[1] = test system: PC3-PIP tumor model; set-up: species or system mice; settings: mouse, in vivo
Excerpt: Radioactively labeled compounds can be detected by imaging methods such as SPECT and PET. Furthermore, the data acquired by such techniques can be confirmed by direct measurement of radioactivity contained in the individual organs prepared from an animal injected with a radioactively labeled compound of the disclosure. Thus, the biodistribution (the measurement of radioactivity in individual organs) of a radioactively labeled compound can be determined and analyzed. […] All animal experiments were conducted in compliance with the German animal protection laws. Male swiss or NMRI nude mice (6-8 weeks old, Janvier Labs, France) were inoculated with 5×10^6 PC3-PIP cells in the right shoulder. For selected compounds an additional model was used, here male NMRI nude mice (6-8 weeks old, Janvier Labs, France) were inoculated with 5×10^6 or/1×10^7 C4-2 cells in the right shoulder. When tumors reached an appropriate size, the mice received ˜30 MBq ^111In-labeled compounds of the disclosure (diluted to 100 μL with PBS) administered intravenously via the tail vein. Images were obtained on a NanoSPECT/computed tomography system (Mediso Medical Imaging Systems, Budapest, Hungary) using exemplarily the following acquisition and reconstruction parameters (Table 10). [table] Imaging data were saved as DICOM files and analysed using VivoQuant™ software (Invicro, Boston, USA). In brief, regions of interest (ROIs) were drawn based on computed tomography images for the relevant organs and tissue regions such as heart (estimate of blood pool, bps), kidney, and tumor. The resulting numeric data expressed as a percentage of injected dose per gram of tissue (% ID/g) are presented in FIGS. 3(a)-3(ii) for the PC3-PIP model and FIGS. 4(a)-4(r) for the C4-2 model. Bars show mean % ID/g values of two to three animals per time point. Error bars indicate the value range (minimum and maximum values).

[2] = biological target: T1, Fc-fusion protein of human PSMA (hPSMA-Fc) (Homo sapiens, UniProt Q04609); experiment: Surface plasmon resonance assay (Biacore T200, single cycle kinetic); assay type: binding; settings: hPSMA-Fc, 25° C., read-out: pKD CAT (converted)
T1 construct: purchased Acro Biosystems PSA-H5264
T1 sequence (Q04609 44-750 limits assumed): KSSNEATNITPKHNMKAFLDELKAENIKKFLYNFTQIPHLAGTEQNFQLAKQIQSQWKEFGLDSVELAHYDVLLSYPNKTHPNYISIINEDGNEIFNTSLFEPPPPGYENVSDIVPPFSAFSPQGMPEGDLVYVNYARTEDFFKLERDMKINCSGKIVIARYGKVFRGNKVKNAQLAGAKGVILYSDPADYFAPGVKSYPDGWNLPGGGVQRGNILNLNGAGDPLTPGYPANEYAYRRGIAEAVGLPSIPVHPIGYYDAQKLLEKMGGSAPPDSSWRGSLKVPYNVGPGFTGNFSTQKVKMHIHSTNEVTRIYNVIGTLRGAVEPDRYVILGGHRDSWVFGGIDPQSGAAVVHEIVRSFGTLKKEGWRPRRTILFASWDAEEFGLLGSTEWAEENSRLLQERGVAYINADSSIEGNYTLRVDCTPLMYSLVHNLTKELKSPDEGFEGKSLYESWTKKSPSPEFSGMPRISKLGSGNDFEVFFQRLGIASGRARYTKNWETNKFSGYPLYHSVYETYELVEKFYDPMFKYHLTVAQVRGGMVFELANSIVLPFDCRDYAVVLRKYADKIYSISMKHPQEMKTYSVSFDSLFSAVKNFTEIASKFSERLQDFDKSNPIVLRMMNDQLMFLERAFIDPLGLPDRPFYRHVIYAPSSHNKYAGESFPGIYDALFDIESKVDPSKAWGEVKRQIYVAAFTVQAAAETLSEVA
How it was run: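 hPSMA-Fc was captured (~1000 RU) on an Fc-binding-peptide CM5 chip, and compounds were run in single cycle kinetic mode at 25° C in HBST with 0.1% DMSO. Double-blank-corrected sensorgrams were fitted to a 1:1 Langmuir model to give KD, reported as pKD.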

[3] = biological target: T2, PSMA-expressing C4-2 cells (Homo sapiens, UniProt Q04609); experiment: FACS binding assay (competition with 50 nM PSM-0183); settings: read-out: pIC50 [C4-2] CAT (converted)
T2 construct: PSMA-expressing C4-2 cells (ATCC, Cat. No. CRL-3314) were cultured in RPMI-1640; host or cells: C4-2 cells
T2 sequence (Q04609 whole entry): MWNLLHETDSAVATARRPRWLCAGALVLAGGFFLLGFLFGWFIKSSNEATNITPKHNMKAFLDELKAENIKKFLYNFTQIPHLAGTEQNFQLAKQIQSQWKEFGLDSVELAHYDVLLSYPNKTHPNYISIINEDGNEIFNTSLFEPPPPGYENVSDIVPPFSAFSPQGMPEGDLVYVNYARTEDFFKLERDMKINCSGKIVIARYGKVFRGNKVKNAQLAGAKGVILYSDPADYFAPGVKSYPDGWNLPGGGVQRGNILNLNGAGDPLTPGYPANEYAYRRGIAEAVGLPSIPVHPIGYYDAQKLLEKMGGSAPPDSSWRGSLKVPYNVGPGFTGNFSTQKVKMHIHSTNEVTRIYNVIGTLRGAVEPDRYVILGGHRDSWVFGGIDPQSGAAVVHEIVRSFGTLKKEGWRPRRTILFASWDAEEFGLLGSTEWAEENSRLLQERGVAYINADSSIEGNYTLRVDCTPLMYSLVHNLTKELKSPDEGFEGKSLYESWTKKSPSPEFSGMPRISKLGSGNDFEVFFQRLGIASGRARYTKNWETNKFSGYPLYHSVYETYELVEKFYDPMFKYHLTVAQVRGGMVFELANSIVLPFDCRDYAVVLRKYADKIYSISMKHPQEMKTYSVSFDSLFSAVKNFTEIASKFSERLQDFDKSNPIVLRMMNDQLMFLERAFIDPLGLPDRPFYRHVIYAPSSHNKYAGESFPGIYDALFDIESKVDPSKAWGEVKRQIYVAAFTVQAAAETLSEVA
How it was run: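 C4-2 cells were incubated 1 h at 4 °C with 50 nM AF488-labelled peptide PSM-0183 plus increasing test compound concentrations, then washed twice in ice-cold buffer. Median fluorescence in the AF488 channel was read by flow cytometry. IC50/pIC50 was derived by 4PL fitting of MFI versus concentration.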

[4] = FACS binding, PSMA-expressing C4-2 cells, pIC50 category
[5] = pKD category for PSMA SPR activity assay
[6] = pIC50 category of FACS binding, C4-2 cells

| AUC ratio [T/K] [1] | Tumor AUC [1] | Kd ([2]; PSMA SPR assay, pKD category) | IC50 [3, 4] | Kd [2, 5] | IC50 [3, 6] | SMILES |
| --- | --- | --- | --- | --- | --- | --- |
| 0.91 | 210 % ID/g*h | < 12.6 nM | < 200 nM |  |  | CC(=O)N[C@H](C(=O)NC(C)(C)C(=O)N[C@@H](Cc1ccccc1)C(=O)N[C@H]1CSSC[C@@H](C(=O)N[C@H](C(=O)N[C@H](C(=O)NCCCOCCOCCOCCCNC(=O)CCC(=O)N[C@H](CCCCNC(=O)CN2CCN(CC(=O)O)CCN(CC(=O)O)CCN(CC(=O)O)CC2)C(N)=O)[C@@H](C)O)C(C)(C)C)NC(=O)[C@H](CC(N)=O)NC(=O)C(C)(C)NC(=O)[C@H](CCCNC(=N)N)NC(=O)[C@H](CCCCN)NC1=O)[C@@H](C)O [PSM-0285, Ac-Thr-Aib-Phe-[Cys-Lys-Arg-Aib-Asn-Cys]-Tle-Thr-Ttds-lys(DOTA)-NH2] (Ac-T[Aib]FCKR[Aib]NC[Tle]T-{TtdsdLys(DOTA)NH2}; disulfide 4-9) |
| 0.45 | 83 % ID/g*h | < 12.6 nM | < 200 nM |  |  | CC(=O)N[C@H](C(=O)NC(C)(C)C(=O)N[C@@H](Cc1cccc(Cl)c1)C(=O)N[C@H]1CSSC[C@@H](C(=O)N[C@H](C(=O)N[C@H](C(N)=O)[C@@H](C)O)C(C)(C)C)NC(=O)[C@H](CC(N)=O)NC(=O)[C@H](CCCCNC(=O)COCCOCCNC(=O)CC[C@H](C(=O)O)N2CCN(CC(=O)O)CCN(CC(=O)O)CCN(CC(=O)O)CC2)NC(=O)[C@H](CCCNC(=N)N)NC(=O)[C@H](CCCCN)NC1=O)[C@@H](C)O [PSM-0301, Ac-Thr-Aib-Mcf-[Cys-Lys-Arg-Lys (DOTAGA-020c)-Asn-Cys]-Tle-Thr-NH2] (Ac-T[Aib][Phe(3-Cl)]CKRK([AEEA-X2])NC[Tle]T-NH2; disulfide 4-9) |
| 1.2 | 160 % ID/g*h | < 12.6 nM | < 200 nM |  |  | CC(=O)N[C@H](C(=O)NC(C)(C)C(=O)N[C@@H](Cc1ccccc1)C(=O)N[C@H]1CSSC[C@@H](C(=O)N[C@H](C(=O)N[C@H](C(=O)N2CCC(CC(=O)N[C@H](CCCCNC(=O)CC[C@H](C(=O)O)N3CCN(CC(=O)O)CCN(CC(=O)O)CCN(CC(=O)O)CC3)C(N)=O)CC2)[C@@H](C)O)C(C)(C)C)NC(=O)[C@H](CC(N)=O)NC(=O)C(C)(C)NC(=O)[C@H](CCCNC(=N)N)NC(=O)[C@H](CCCCN)NC1=O)[C@@H](C)O [PSM-0339, Ac-Thr-Aib-Phe-[Cys-Lys-Arg-Aib-Asn-Cys]-Tle-Thr-Cmp-lys (DOTAGA)-NH2] (Ac-T[Aib]FCKR[Aib]NC[Tle]T[X1][dK](X2)-NH2; disulfide 4-9) |
| 0.85 | 110 % ID/g*h | < 12.6 nM | < 200 nM |  |  | C[C@@H](O)[C@H](NC(=O)CC1CCN(C(=O)CN2CCN(CC(=O)O)CCN(CC(=O)O)CCN(CC(=O)O)CC2)CC1)C(=O)NC(C)(C)C(=O)N[C@@H](Cc1ccccc1)C(=O)N[C@H]1CSSC[C@@H](C(=O)N[C@H](C(N)=O)C(C)(C)C)NC(=O)[C@H](CC(N)=O)NC(=O)C(C)(C)NC(=O)[C@H](CCCNC(=N)N)NC(=O)[C@H](CCCCN)NC1=O [PSM-0361, DOTA-Cmp-Thr-Aib-Phe-[Cys-Lys-Arg-Aib-Asn-Cys]-Tle-NH2] ({DOTA}-[X1]T[Aib]FCKR[Aib]NC[Tle]-NH2; disulfide 5-10) |
| 1.6 | 140 % ID/g*h |  |  | < 12.6 nM | < 200 nM | C[C@@H](O)[C@H](NC(=O)[C@@H](NC(=O)[C@@H]1CSSC[C@H](NC(=O)[C@H](Cc2ccc(Cl)cc2)NC(=O)C(C)(C)NC(=O)[C@@H](NC(=O)CC2CCN(C(=O)CN3CCN(CC(=O)O)CCN(CC(=O)O)CCN(CC(=O)O)CC3)CC2)[C@@H](C)O)C(=O)N[C@@H](CCCCN)C(=O)N[C@@H](CCCNC(N)=O)C(=O)NC(C)(C)C(=O)N[C@@H](CC(N)=O)C(=O)N1)C(C)(C)C)C(N)=O [PSM-0365, DOTA-Cmp-Thr-Aib-Pcf-[Cys-Lys-Cit-Aib-Asn-Cys]-Tle-Thr-NH2] ({DOTA}-[X1]T[Aib][Phe(4-Cl)]CK[Cit][Aib]NC[Tle]T-NH2; disulfide 5-10) |
| 0.62 | 120 % ID/g*h |  |  | < 12.6 nM | < 200 nM | CCCCNC(=O)N[C@H](C(=O)NC(C)(C)C(=O)N[C@@H](Cc1ccc(Cl)cc1)C(=O)N[C@H]1CSSC[C@@H](C(=O)N[C@H](C(=O)N[C@H](C(=O)N2CCC(CC(=O)N[C@H](CCCCNC(=O)CN3CCN(CC(=O)O)CCN(CC(=O)O)CCN(CC(=O)O)CC3)C(N)=O)CC2)[C@@H](C)O)C(C)(C)C)NC(=O)[C@H](CC(N)=O)NC(=O)C(C)(C)NC(=O)[C@H](CCCNC(=N)N)NC(=O)[C@H](CCCCN)NC1=O)[C@@H](C)O [PSM-0371, nBuCAyl-Thr-Aib-Pcf-[Cys-Lys-Arg-Aib-Asn-Cys]-Tle-Thr-Cmp-lys(DOTA)-NH2] ({NHBu-CO}-T[Aib][Phe(4-Cl)]CKR[Aib]NC[Tle]T[X1][dK](DOTA)-NH2; disulfide 4-9) |
| 1.1 | 160 % ID/g*h |  |  | < 12.6 nM | < 200 nM | CC(C)[C@H](NC(=O)[C@@H]1CSSC[C@H](NC(=O)[C@H](Cc2ccc(Cl)cc2)NC(=O)C(C)(C)NC(=O)[C@@H](NC(=O)CC2CCN(C(=O)CN3CCN(CC(=O)O)CCN(CC(=O)O)CCN(CC(=O)O)CC3)CC2)[C@@H](C)O)C(=O)N[C@@H](CCCCN)C(=O)N[C@@H](CCCNC(=N)N)C(=O)NC(C)(C)C(=O)N[C@@H](CC(N)=O)C(=O)N1)C(=O)N(C)[C@H](C(N)=O)[C@@H](C)O [PSM-0377, DOTA-Cmp-Thr-Aib-Pcf-[Cys-Lys-Arg-Aib-Asn-Cys]-Val-Nmt-NH2] ({DOTA}-[X1]T[Aib][Phe(4-Cl)]CKR[Aib]NCV[NMeT]-NH2; disulfide 5-10) |
| 0.30 | 220 % ID/g*h |  |  | < 12.6 nM | < 200 nM | C[C@@H](O)[C@H](NC(=O)CC1CCN(C(=O)CN2CCN(CC(=O)O)CCN(CC(=O)O)CCN(CC(=O)O)CC2)CC1)C(=O)NC(C)(C)C(=O)N[C@@H](Cc1ccc(Cl)cc1)C(=O)N[C@H]1CSSC[C@@H](C(=O)N[C@H](C(=O)NCCN)C(C)(C)C)NC(=O)[C@H](CC(N)=O)NC(=O)C(C)(C)NC(=O)[C@H](CCCNC(=N)N)NC(=O)[C@H](CCCCN)NC1=O [PSM-0384, DOTA-Cmp-Thr-Aib-Pcf-[Cys-Lys-Arg-Aib-Asn-Cys]-Tle-en] ({DOTA}-[X1]T[Aib][Phe(4-Cl)]CKR[Aib]NC[Tle]-Ethylenediamine; disulfide 5-10) |
| 0.53 | 230 % ID/g*h |  |  | < 12.6 nM | < 200 nM | CCCCCC(=O)N[C@H](C(=O)NC(C)(C)C(=O)N[C@@H](Cc1ccccc1)C(=O)N[C@H]1CSSC[C@@H](C(=O)N[C@H](C(=O)N[C@H](C(=O)N[C@@H](CC(=O)O)C(=O)NCCCOCCOCCOCCCNC(=O)CCC(=O)N[C@H](CCCCNC(=O)CN2CCN(CC(=O)O)CCN(CC(=O)O)CCN(CC(=O)O)CC2)C(N)=O)[C@@H](C)O)C(C)(C)C)NC(=O)[C@H](CC(N)=O)NC(=O)C(C)(C)NC(=O)[C@H](CCCNC(=N)N)NC(=O)[C@H](CCCCN)NC1=O)[C@@H](C)O [PSM-0425, Hex-Thr-Aib-Phe-[Cys-Lys-Arg-Aib-Asn-Cys]-Tle-Thr-Asp-Ttds-lys(DOTA)-NH2] (Hexanoyl-T[Aib]FCKR[Aib]NC[Tle]TD-{TtdsdLys(DOTA)NH2}; disulfide 4-9) |
| 1.2 | 170 % ID/g*h |  |  | < 12.6 nM | < 200 nM | CC(=O)N[C@H](C(=O)NC(C)(C)C(=O)N[C@@H](Cc1ccccc1)C(=O)N[C@H]1CSSC[C@@H](C(=O)N[C@H](C(=O)N[C@H](C(=O)N2CCC(CC(=O)N[C@H](CCCCNC(=O)CN3CCN(CC(=O)O)CCN(CC(=O)O)CCN(CC(=O)O)CC3)C(N)=O)CC2)[C@@H](C)O)C(C)(C)C)NC(=O)[C@H](CC(N)=O)NC(=O)C(C)(C)NC(=O)[C@H](CCCNC(=N)N)NC(=O)[C@H](CCCCN)NC1=O)[C@@H](C)O [PSM-0428, Ac-Thr-Aib-Phe-[Cys-Lys-Arg-Aib-Asn-Cys]-Tle-Thr-Cmp-lys(DOTA)-NH2] (Ac-T[Aib]FCKR[Aib]NC[Tle]T[X1][dK](DOTA)-NH2; disulfide 4-9) |
